Literature values, collected in patent US9757705B2, “Method for production of concentrates of preferably water-soluble active agents” (KWIZDA AGRO GMBH, priority 2013, dated 2017).

Conditions: at 20° C.; according to literature

In the case of `C/C(=N\C#N)N(C)Cc1ccc(Cl)nc1` [Acetamiprid], the solubility is listed as 400 mg/100 ml.
